Test results published in patent US20250313575A1, “MACROCYCLES AS LRRK2 INHIBITORS, PHARMACEUTICAL COMPOSITIONS, AND USES THEREOF” (Merck Sharp & Dohme LLC, priority 2022, published 2025).

Target: GST-tagged truncated human mutant G2019S LRRK2 (Homo sapiens (Human), UniProt Q5S007, G2019S)
Test: LRRK2 G2019S Km ATP LanthaScreen assay
Assay type: biochemical
Settings: G2019S LRRK2, 134 μM ATP (Km ATP), LRRKtide substrate
Method: Unless otherwise noted, all reactions are magnetically allowed to stir, diethyl ether used in the experiments described below is Fisher ACS certified material stabilized with BHT, and “concentrated” and/or “solvent removed under reduced pressure” means evaporating the solvent from a solution or mixture using a rotary evaporator or vacuum pump. Unless otherwise noted, flash chromatography is carried out on a Teledyne Isco (Lincoln, NE), Analogix (Burlington, WI), or Biotage (Stockholm, SWE) automated chromatography system using a commercially available cartridge as the column. Columns may be purchased from Teledyne Isco, Analogix, Biotage, Varian (Palo Alto, CA), or Supelco (Bellefonte, PA) and are usually filled with silica gel as the stationary phase. Reverse phase prep-HPLC conditions, where used, can be found at the end of each experimental section. Aqueous solutions were concentrated on a Genevac (Ipswich, ENG) or by freeze-drying/lyophilization. Unless otherwise noted, all LRRK2 pIC50 data presented in tables refers to the LRRK2 G2019S Km ATP LanthaScreen™ assay (Life Technologies Corp., Carlsbad, CA) that is described in the Biological Assay section.
The LRRK2 kinase activity reported herein as IC50 values was determined with LanthaScreen™ technology from Life Technologies Corporation (Carlsbad, CA) using GST-tagged truncated human mutant G2019S LRRK2 in the presence of the fluorescein-labeled peptide substrate LRRKtide, also from Life Technologies. The data presented for the […] depending on the specific conditions and reagents used. Assays were performed in the presence of 134 μM ATP (Km ATP). Upon completion, the assay was stopped and phosphorylated substrate detected with a terbium (Tb)-labeled anti-pERM antibody (cat. no. PV4898). The compound dose response was prepared by diluting a 10 mM stock of compound to a maximum concentration of 9.99 μM in 100% dimethylsulfoxide followed by custom fold serial dilution in dimethylsulfoxide nine times. Twenty nanoliters of each dilution was spotted via a Labcyte Echo onto a 384-well black-sided plate (Corning 3575) followed by 15 μl of a 1.25 nM enzyme solution in 1× assay buffer (50 mM Tris pH 8.5, 10 mM MgCl2, 0.01% Brij-35, 1 mM EGTA, 2 mM dithiothreitol, 0.05 mM sodium orthovanadate). Following a 15-minute incubation at room temperature, the kinase reaction was started with the addition of 5 μl of 400 nM fluorescein-labeled LRRKtide peptide substrate and 134 μM ATP solution in 1× assay buffer. The reaction was allowed to progress at ambient temperature for 90 minutes. The reaction was then stopped by the addition of 20 μl of TR-FRET Dilution Buffer (Life Technologies, Carlsbad, CA) containing 2 nM Tb-labeled anti-phospho LRRKtide antibody and 10 mM EDTA (Life Technologies, Carlsbad, CA). After an incubation of 1 h at room temperature, the plate was read on an EnVision multimode plate reader (Perkin Elmer, Waltham, MA) with an excitation wavelength of 337 nm (Laser) and a reading emission at both 520 and 495 nm. Compound IC50s were interpolated from nonlinear regression best fits of the log of the final compound concentration, plotted as a function of the 520/495-nm emission ratio using Activity base. Abase uses a 4 parameter (4P) logistic fit based on the Levenberg-Marquardt algorithm.

Sequence of GST-tagged truncated human mutant G2019S LRRK2 (Q5S007 970-2527 G2019S): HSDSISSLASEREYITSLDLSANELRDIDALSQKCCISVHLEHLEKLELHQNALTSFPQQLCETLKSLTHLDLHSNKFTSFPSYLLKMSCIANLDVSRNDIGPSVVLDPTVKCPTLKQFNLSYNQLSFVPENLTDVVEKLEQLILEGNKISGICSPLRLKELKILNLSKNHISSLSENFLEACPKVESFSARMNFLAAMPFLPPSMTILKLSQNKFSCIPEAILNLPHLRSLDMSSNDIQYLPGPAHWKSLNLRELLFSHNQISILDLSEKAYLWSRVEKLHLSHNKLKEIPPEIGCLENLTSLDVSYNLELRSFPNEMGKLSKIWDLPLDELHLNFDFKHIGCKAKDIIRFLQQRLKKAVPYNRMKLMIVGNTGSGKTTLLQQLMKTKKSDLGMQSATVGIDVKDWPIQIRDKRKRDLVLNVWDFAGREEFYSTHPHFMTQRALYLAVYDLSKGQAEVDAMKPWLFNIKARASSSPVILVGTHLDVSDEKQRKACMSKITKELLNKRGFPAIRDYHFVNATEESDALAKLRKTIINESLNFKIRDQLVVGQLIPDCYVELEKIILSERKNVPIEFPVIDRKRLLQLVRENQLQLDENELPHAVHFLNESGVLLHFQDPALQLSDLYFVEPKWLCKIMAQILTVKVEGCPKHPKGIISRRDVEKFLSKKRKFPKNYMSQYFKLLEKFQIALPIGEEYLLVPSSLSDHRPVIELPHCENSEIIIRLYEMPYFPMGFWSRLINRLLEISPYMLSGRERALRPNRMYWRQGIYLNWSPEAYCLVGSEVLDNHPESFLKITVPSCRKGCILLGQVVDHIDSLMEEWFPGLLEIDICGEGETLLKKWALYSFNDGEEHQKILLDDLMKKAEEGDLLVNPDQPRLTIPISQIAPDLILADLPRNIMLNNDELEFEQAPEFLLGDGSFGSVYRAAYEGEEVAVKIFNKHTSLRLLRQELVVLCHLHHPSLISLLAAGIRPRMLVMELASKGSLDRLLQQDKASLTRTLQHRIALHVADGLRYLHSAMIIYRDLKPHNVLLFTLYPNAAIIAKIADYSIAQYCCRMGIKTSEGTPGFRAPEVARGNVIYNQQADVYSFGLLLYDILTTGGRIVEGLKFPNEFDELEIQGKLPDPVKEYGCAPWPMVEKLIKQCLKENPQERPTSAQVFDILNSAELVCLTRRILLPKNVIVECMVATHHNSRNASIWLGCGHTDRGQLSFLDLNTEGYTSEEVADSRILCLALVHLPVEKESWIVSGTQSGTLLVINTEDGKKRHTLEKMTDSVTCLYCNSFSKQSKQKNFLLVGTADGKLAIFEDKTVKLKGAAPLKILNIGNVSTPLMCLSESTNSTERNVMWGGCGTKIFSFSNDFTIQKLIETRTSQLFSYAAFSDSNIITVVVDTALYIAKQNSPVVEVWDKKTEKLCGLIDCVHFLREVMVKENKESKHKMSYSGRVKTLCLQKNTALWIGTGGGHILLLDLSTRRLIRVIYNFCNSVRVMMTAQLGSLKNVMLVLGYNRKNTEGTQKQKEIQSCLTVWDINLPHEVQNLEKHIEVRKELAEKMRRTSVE

| Structure (SMILES) | LRRK2 pIC50 |
| --- | --- |
| CC(C)c1nn(C(C)(C)C#N)c2c1Nc1ncc(C3CC3)c(n1)N[C@@H]1COC[C@H]1CO2 [Ex-1.15, 2-((10aS,13aS)-8-cyclopropyl-3-isopropyl-10a,11,13a,14-tetrahydro-10H,13H-5,9-(azeno)furo[3,4-k]pyrazolo[3,4-b][1]oxa[4,6,10]triazacyclotridecin-1(4H)-yl)-2-methylpropanenitrile] | 8.27 |
| CC1CCOc2c(C(C)(C)C#N)nn(C3CCC3)c2Nc2ncc(C(F)(F)F)c(n2)N1 (single isomer, unassigned) [Ex-2.29, (R)- or (S)-butyl-7-methyl-10-(trifluoromethyl)-1,5,6,7,8,14-hexahydro-9,13-(azeno)pyrazolo[4,3-b][1]oxa[4,6,10]triazacyclotridecin-3-yl)-2-methylpropanenitrile] | 5.70 |
| CC(C)c1nn(C2CCOC2)c2c1Nc1ncc(C(F)(F)F)c(n1)N[C@@H]1CC[C@H]1CO2 (stereo partly drawn) [Ex-1.18, (10aR,12aR)-3-isopropyl-1-((R)- or (10aR,12aR)-3-isopropyl-1-((S)-tetrahydrofuran-3-yl)-8-(trifluoromethyl)-1,4,10,10a,11,12,12a,13-octahydro-5,9-(azeno)cyclobuta[k]pyrazolo[3,4-b][1]oxa[4,6,10]triazacyclotridecine] | >10.09 |
| Cc1nn(C2CCC2)c2c1OC[C@@H]1COC[C@H]1Nc1nc(ncc1C(F)(F)F)N2 (single isomer, unassigned) [Ex-2.27, (3aR,15aR)- or (3aS,15aS)-11-cyclobutyl-13-methyl-6-(trifluoromethyl)-2,3,3a,4,10,11,15,15a-octahydro-5,9-(azeno)furo[3,2-k]pyrazolo[4,3-b][1]oxa[4,6,10]triazacyclotridecine] | 6.47 |
| OCc1nn(C2CCC2)c2c1OC[C@@H]1COC[C@H]1Nc1nc(ncc1C(F)(F)F)N2 [Ex-6.6, ((10aS,13aS)-3-cyclobutyl-8-(trifluoromethyl)-3,4,10a,11,13a,14-hexahydro-10H,13H-5,9-(azeno)furo[3,4-k]pyrazolo[4,3-b][1]oxa[4,6,10]triazacyclotridecin-1-yl)methanol] | >10.09 |
| Cc1nn(C2CCC2)c2c1CC[C@@H]1COC[C@H]1Nc1nc(ncc1C(F)(F)F)N2 (single isomer, unassigned) [Ex-12.1, (10aS,13aS)- or (10aR,13aR)-3-Cyclobutyl-1-methyl-8-(trifluoromethyl)-3,4,10a,11,13,13a,14,15-octahydro-10H-5,9-(azeno)furo[3,4-h]pyrazolo[4,3-l][1,3,7]triazacyclotridecine] | >10.09 |
| Cn1nc(C2CC2)c2c1OCC1CCC1Nc1nc(ncc1C(F)(F)F)N2 [Ex-1.10, (10aR,12aR)- or (10aS,12aS)-3-cyclopropyl-1-methyl-8-(trifluoromethyl)-1,4,10,10a,11,12,12a,13-octahydro-5,9-(azeno)cyclobuta[k]pyrazolo-[3,4-b][1]oxa[4,6,10]triazacyclo-tridecine] | 6.58 |
| Cc1c2c(nn1C1CC1)Nc1ncc(C(F)(F)F)c(n1)N[C@@H](C)CCO2 (single isomer, unassigned) [Ex-17.1, (R)- or (S)-2-cyclopropyl-3,7-dimethyl-10-(trifluoromethyl)-2,5,6,7,8,14-hexahydro-9,13-(azeno)pyrazolo[4,3-b][1]oxa[4,6,10]triazacyclotridecine] | 6.63 |
| Cc1nn(C2CCC2)c2c1OC1COC[C@H]1CNc1nc(ncc1C(F)(F)F)N2 (single isomer, unassigned) [Ex-2.82, (11aR,14aS) or (11aS,14aR)-3-cyclobutyl-1-methyl-8-(trifluoromethyl)-3,4,10,11,11a,12,14,14a-octahydro-5,9-(azeno)furo[3,4-1]pyrazolo[4,3-b][1]oxa[4,6,10]triazacyclotridecine] | 9.60 |
| CC(C)c1n[nH]c2c1Nc1ncc(C(F)(F)F)c(n1)N[C@@H]1CC[C@H]1CO2 [Ex-1.22, (10aR,12aR)-3-isopropyl-8-(trifluoromethyl)-1,4,10,10a,11,12,12a,13-octahydro-5,9-(azeno)cyclobuta[k]pyrazolo[3,4-b][1]oxa[4,6,10]triazacyclotridecine] | >10.09 |
| Cc1nn(C2CCC2)c2c1OC[C@@H]1CN(C[C@H]1C)c1nc(ncc1C(F)(F)F)N2 (single isomer, unassigned) [Ex-20.2, (6S,7S)- or (6R,7R)-1-Cyclobutyl-3,7-dimethyl-11-(trifluoromethyl)-1,5,6,7,8,15-hexahydro-10,14-(azeno)-6,9-methanopyrazolo[4,3-b][1]oxa[4,6,10]triazacyclotetradecine] | 9.39 |
| Cc1nn(C(C)C)c2c1OC[C@@H]1COC[C@H]1Nc1nc(ncc1Cl)N2 [Ex-2.54, (10aS,13aS)-8-chloro-3-isopropyl-1-methyl-3,4,10a, 11,13a,14--hexahydro-10H,13H-5,9-(azeno)furo[3,4-k]pyrazolo[4,3-b][1]oxa[4,6,10]triazacyclotridecine] | 8.57 |
| Cc1nn(C)c2c1Nc1ncc(C(F)(F)F)c(n1)N[C@H](C)CCO2 [Ex-1.4, (R)-1,3,11-trimethyl-8-(trifluoromethyl)-1,4,10,11,12,13-hexahydro-5,9-(azeno)pyrazolo[3,4-b][1]oxa[4,6,10]triazacyclotridecine] | 8.93 |
| Cn1nc(C2CC2)c2c1OCC1COCC1Nc1nc(ncc1C(F)(F)F)N2 [Ex-1.6, (10aS,13aS)- or (10aR,13aR)-3-cyclopropyl-1-methyl-8-(trifluoromethyl)-1,4,10a,11,13a,14-hexahydro-10H,13H-5,9-(azeno)furo[3,4-k]pyrazolo[3,4-b][1]oxa[4,6,10]triazacyclotridecine] | 6.92 |
| Cc1nn(C2CC2)c2c1OC[C@H]1CC[C@@H]1Oc1nc(ncc1C(F)(F)F)N2 [Ex-14.2, (10aR,13aS)- or (10aS,13aR)-3-Cyclopropyl-1-methyl-8-(trifluoromethyl)-3,4,10a,11,12a,13-hexahydro-12H-5,9-(azeno)cyclobuta[k]pyrazolo[4,3-b][1,10]dioxa[4,6]diazacyclotridecine] | 5.16 |
| Cc1nn(C2CCC2)c2c1OC[C@@H]1CC[C@H]1Nc1cc(ncc1Cl)N2 [Ex-13.3, (10aR,12aR)-8-chloro-3-cyclobutyl-1-methyl-3,4,10,10a,11,12,12a,13-octahydro-5,9-(metheno)cyclobuta[k]pyrazolo[4,3-b][1]oxa[4,6,10]triazacyclotridecine] | >10.09 |

Same assay, conditions: G2019S LRRK2, 134 μM ATP (Km ATP), LRRKtide substrate; read-out: LRRK2 pIC50 (converted)

| Structure (SMILES) | IC50 |
| --- | --- |
| Cc1nn(C2CCC2)c2c1CC[C@@H]1COC[C@H]1Nc1nc(ncc1C(F)(F)F)N2 (single isomer, unassigned) [Ex-12.2, (10aS,13aS)- or (10aR,13aR)-3-Cyclobutyl-1-methyl-8-(trifluoromethyl)-3,4,10a,11,13,13a,14,15-octahydro-10H-5,9-(azeno)furo[3,4-h]pyrazolo[4,3-l][1,3,7]triazacyclotridecine] | 0.24 nM |
| Cc1nn(C)c2c1CCC[C@@H](C)Nc1nc(ncc1C(F)(F)F)N2 (single isomer, unassigned) [Ex-11.2, (R)- or (S)-1,3,7-Trimethyl-10-(trifluoromethyl)-4,5,6,7,8,14-hexahydro-1H-9,13-(azeno)pyrazolo[4,3-l][1,3,7]triazacyclotridecine] | 3.16 nM |
